# Source: US6730683B2, “Compounds of heteroaryl substituted imidazole, their pharmaceutical compositions and uses” (SmithKline Beecham Corporation, priority 1997, dated 2004)
# Assays:
# [1] = system: pro-inflammatory proteins including, IL-6, IL-8, GM-CSF and COX-2; settings: cited from earlier work
# [2] = system: human PGHS-2 protein expression in LPS stimulated human monocytes; assay: Prostoglandin Endoperoxide Synthase-2 (PGHS-2) Assay; type: cell-based; settings: for inhibited LPS induced PGHS-2 protein expression (active in this assay): rank order potency similar to that for inhibiting cytokine production; for LPS induced PGHS-2 protein expression (inactive in this assay): up to 10 uM
# Method: The following assay describes a method for determining the inhibitory effects of compounds of Formula (I) on human PGHS-2 protein expression in LPS stimulated human monocytes.
# Human peripheral blood monocytes were isolated from buffy coats by centrifugation through Ficoll and Percoll gradients. Cells were seeded at 2×10^6/well in 24 well plates and allowed to adhere for 1 hour in RPMI supplemented with 1% human AB serum, 20 mM L-glutamine, Penicillin-Streptomycin and 10 mM HEPES. Compounds were added at various concentrations and incubated at 37° C. for 10 minutes. LPS was added at 50 ng/well (to induce enzyme expression) and incubated overnight at 37° C. The supernatant was removed and cells washed once in cold PBS. The cells were lysed in 100 μl of cold lysis buffer(50 mM Tris/HCl pH 7.5, 150 mM NaCl, 1% NP40, 0.5% sodium deoxycholate, 0.1% SDS, 300 ug/ml DNAse, 0.1% TRITON X-100, 1 mM PMSF, 1 mM leupeptin, 1 mM pepstatin). The lysate was centrifuged (10,000×g for 10 min. at 4° C.) to remove debris and the soluble fraction was subjected to SDS PAGE. analysis (12% gel). Protein separated on the gel were transferred onto nitrocellulose membrane by electrophoretic means for 2 hours at 60 volts. The membrane was pretreated for one hour in PBS/0.1% Tween 20 with 5% non-fat dry milk. After washing 3 times in PBS/Tween buffer, the membrane was incubated with a 1:2000 dilution of a monospecific antiserum to PGHS-2 or a 1:1000 dilution of an antiserum to PGHS-1 in PBS/Tween with 1% BSA for one hour with continuous shaking. The membrane was washed 3× in PBS/Tween and then incubated with a 1:3000 dilution of horseradish peroxidase conjugated donkey antiserum to rabbit Ig (Amersham) in PBS/Tween with 1% BSA for one hour with continuous shaking. The membrane was then washed 3× in PBS/Tween and the ECL immunodetection system (Amersham) was used to detect the level of expression of prostaglandin endoperoxide synthases-2.
smiles,measurement,setting,value
Fc1ccc(-c2nc3n(c2-c2ccncc2)CCS3)cc1 [SK&F 86002],"synthesis of pro-inflammatory proteins including IL-6, IL-8, GM-CSF and COX-2",[1],decrease
C[C@@H]1C[C@H]2[C@@H]3CCC4=CC(=O)C=C[C@]4(C)[C@@]3(F)[C@@H](O)C[C@]2(C)[C@@]1(O)C(=O)CO [Dexamethasone],inhibited LPS induced PGHS-2 protein expression (active in this assay),[2],active
C[S+]([O-])c1ccc(-c2nc(-c3ccncc3)c(-c3ccc(F)cc3)[nH]2)cc1 (stereo not shown) [SB 203580],"synthesis of pro-inflammatory proteins including IL-6, IL-8, GM-CSF and COX-2",[1],decrease
"Fc1ccc(-c2nc3n(c2-c2ccncc2)CCS3)cc1 [6-(4-Fluoro-phenyl)-2,3-dihydro-5-(4-pyridinyl)imidazo[2,1-b]thiazole]",inhibited LPS induced PGHS-2 protein expression (active in this assay),[2],active
COc1ccc(C2CNC(=O)C2)cc1OC1CCCC1 (stereo not shown) [Rolipram],LPS induced PGHS-2 protein expression (inactive in this assay),[2],inactive
"C[S+]([O-])c1ccc(-c2nc3n(c2-c2ccncc2)CCC3)cc1 (stereo not shown) [2-(4-Methylsulfinylphenyl)-3-(4-pyridyl)-6,7-dihydro-(5H)-pyrrolo[1,2-a]imidazole]",LPS induced PGHS-2 protein expression (inactive in this assay),[2],inactive
O=C1CCN(c2ccccc2)N1 [phenidone],LPS induced PGHS-2 protein expression (inactive in this assay),[2],inactive
